We go through one compound from article PMC5000727, “Molecular Insights into the Potential Toxicological Interaction of 2-Mercaptothiazoline with the Antioxidant Enzyme—Catalase” (International Journal of Molecular Sciences, 2016).

Each structure is given as a SMILES string.

The assay deals with T1, catalase (CAT), from bovine liver (Bos taurus, UniProt P00432).
T1 construct: native enzyme from bovine liver, commercial (Sigma), EC 1.11.1.6; homotetramer; PDB 1TGU printed only as docking model
T1 sequence (P00432 2-527): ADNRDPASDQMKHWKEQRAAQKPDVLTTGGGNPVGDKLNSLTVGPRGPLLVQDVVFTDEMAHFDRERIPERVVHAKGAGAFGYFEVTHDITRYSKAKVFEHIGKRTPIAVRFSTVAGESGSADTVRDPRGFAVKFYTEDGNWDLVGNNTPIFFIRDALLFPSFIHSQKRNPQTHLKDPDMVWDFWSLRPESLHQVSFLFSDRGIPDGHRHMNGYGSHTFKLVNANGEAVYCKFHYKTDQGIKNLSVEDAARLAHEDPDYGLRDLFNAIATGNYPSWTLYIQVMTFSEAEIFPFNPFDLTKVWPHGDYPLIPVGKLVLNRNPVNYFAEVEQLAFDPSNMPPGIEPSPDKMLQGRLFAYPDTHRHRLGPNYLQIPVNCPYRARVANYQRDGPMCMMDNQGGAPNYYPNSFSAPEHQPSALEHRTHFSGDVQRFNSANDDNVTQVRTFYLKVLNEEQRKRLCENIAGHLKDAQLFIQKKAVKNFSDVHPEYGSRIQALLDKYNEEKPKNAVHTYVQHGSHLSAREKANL
Description: intrinsic fluorescence quenching (ex […] nm). The assay is classed as binding. To be noted: double-log; pH 7.4, 291 K, phosphate buffer; n = 1.14; unit printed mol·L^−1 but must be L·mol^−1 (printed ΔG° agrees); also measured at 300, 309, 318 K.

With `S=C1NCCS1` [2-mercaptothiazoline, 1,3-thiazolidine-2-thione], the “Ka (× 10^4 mol.L^-1)” value is listed as 2.97 × 10^4 mol·L^−1.
